Read-outs that look alike come from different tables or passages of the source.
What was measured:
[1] = tested on: HRV-14; experiment: Antirhinoviral HI-HeLa Cell Culture Assay (cell protection, XTT), HRV-14; format: cell-based, human rhinovirus; details: for TI: CC50/EC50, HRV serotype-14, 2880 min; for EC50: Rhinovirus B, HRV14, 48 h, HRV serotype-14 infected HI-HeLa cells, XTT, two days
Method in brief: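 Read-out is XTT/PMS formazan at 450/650 nm, measured two days after compound exposure of HI-HeLa cells (8×10^5 cells/mL) infected at m.o.i. 0.13 or mock-infected. EC50: protection to 50% of compound-free mock-infected signal; CC50: 50% loss in mock-infected cells; TI is their ratio.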

[2] = tested on: HRV 1A; experiment: Antirhinoviral HI-HeLa Cell Culture Assay (cell protection, XTT), HRV 1A; format: cell-based, human rhinovirus
Description: (§1) In the Cell Protection Assay, the ability of compounds to protect cells against HRV infection was measured by the XTT dye reduction method. This method is described in O. S. Weislow, R. Kiser, D. L. Fine, J. Bader, R. H. Shoemaker, and M. R. Boyd, J. Natl. Cancer Inst. 1989, 81, 577-586, which document is entirely incorporated herein by reference.
(§2) HI-HeLa cells were infected with HRV-14 (unless otherwise noted) at a multiplicity of infection (m.o.i.) of 0.13 (virus particles/cell) or mock-infected with medium only. Infected or mock-infected cells were resuspended at 8×10^5 cells per mL and incubated with appropriate concentrations of compounds of formulas I and II. Two days later, XTT/PMS was added to test plates, and the amount of formazan produced was quantified spectrophotometrically at 450/650 nm. The EC50 was calculated as the concentration of compound that increased the percentage of formazan production in compound-treated, virus-infected cells to 50% of that produced by compound-free mock-infected cells. The 50% cytotoxic dose (CC50) was calculated as the concentration of compound that decreased the percentage of formazan produced in compound-treated, mock-infected cells to 50% of that produced in compound-free, mock-infected cells. The therapeutic index (TI) was calculated by dividing the CC50 by the EC50. […]

[3] = tested on: HRV 10; experiment: Antirhinoviral HI-HeLa Cell Culture Assay (cell protection, XTT), HRV 10; format: cell-based, human rhinovirus
Description: as §1, §2

[4] = target: T1, Rhinovirus 3C protease (RVP) serotype-14 (Human rhinovirus 14, UniProt P03303); experiment: Inhibition of Rhinovirus Protease, serotype 14 (FRET assay); format: biochemical; details: for kinact/KI: read-out: kobs/I
T1 construct: Recombinant Rhinovirus 3C proteases from serotypes 14, 16, 2 or 89 were prepared; made in house
Method in brief: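 Recombinant HRV 3C protease (50–100 nM) in 50 mM tris pH 7.6, 1 mM EDTA, 2% DMSO, with ~1 μM DABCYL-GRAVFQGPVG-EDANS FRET substrate; cleavage read as fluorescence increase. Ki: compound and enzyme preincubated 10 min at 30° C before substrate start; kobs/I from enzyme-start progress curves. Values are percent inhibition at stated μM, or Ki.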

[5] = in vitro; format: cell-based; details: human, hi-hela cells
Method in brief: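 HI-HeLa cells infected with HRV-14 at m.o.i. 0.13 or mock-infected, incubated with compounds for two days; XTT/PMS formazan read at 450/650 nm. EC50 as concentration restoring formazan to 50% of mock-infected level; CC50 from mock-infected cells; TI = CC50/EC50.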

[6] = tested on: CVA-21; experiment: Anticoxsackieviral HI-HeLa Cell Culture Assay, CVA-21; format: cell-based, Coxsackie strain A-21; details: for EC50: 24 h, CVA-21 infection of Hi-HeLa cells, XTT, one day
Description: (§3) The ability of compounds to protect cells against CVA-21 or CVB-3 infection was measured by the XTT dye reduction method. Briefly, HI-HeLa cells were infected with CVA-21 or CVB-3 at a multiplicity of infection (m.o.i.) of 0.05 (CVA-21) and 0.08 (CVB-3) or mock-infected with medium only. Infected or uninfected cells were resuspended at 4×10^4 cells per mL and incubated with appropriate concentrations of drug. One day later, XTT/PMS was added to test plates, and the amount of formazan produced was quantified spectrophotometrically at 450/650 nm. The EC50 was calculated as the concentration of drug that increased the percentage of formazan production in drug-treated, virus-infected cells to 50% of that produced by drug-free, uninfected cells. The 50% cytotoxic dose (CC50) was calculated as the concentration of drug that decreased the percentage of formazan produced in drug-treated, uninfected cells to 50% of that produced in drug-free, uninfected cells. The therapeutic index (TI) was calculated by dividing the CC50 by the EC50.
(§4) The Coxsackie strains A-21 (CVA-21) and B-3 (CVB-3) were purchased from American Type Culture Collection (ATCC). Virus stocks were propagated and antiviral assays were performed in HI-HeLa cells (ATCC). Cells were grown in Minimal Essential Medium with 10% fetal bovine serum.

[7] = tested on: HI-HeLa cells; experiment: in vitro; format: cell-based; details: human, 24 h
Description: as §3, §4

[8] = in vitro; format: cell-based; details: human, hi-hela cells; remark: listed apart in the source
Description: as §3, §4

[9] = tested on: CVB-3; experiment: Anticoxsackieviral HI-HeLa Cell Culture Assay, CVB-3; format: cell-based, Coxsackie strain B-3; details: 24 h; CVB-3 infection of Hi-HeLa cells, XTT, one day
Description: as §3, §4

[10] = tested on: MRC5 cells; experiment: in vitro; format: cell-based
Description: (§5) The Echovirus strain 11 (ECHO-11) and Enterovirus strain 70 (ENT-70) were purchased from American Type Culture Collection (ATCC). Virus stocks were propagated and antiviral assays were performed in MRC5 cells (ATCC). Cells were grown in Minimal Essential Medium with 10% fetal bovine serum.
as §3, with “ECHO-11” for “CVA-21”, “ENT-70” for “CVB-3”, “MRC5” for “HI-HeLa”, “0.0013 (ECHO-11)” for “0.05 (CVA-21)”, “0.0017 (ENT-70)” for “0.08 (CVB-3)”, “2×10^4” for “4×10^4”

[11] = in vitro; format: cell-based; details: human, mrc5 cells
Description: as §5
as §3, with “ECHO-11” for “CVA-21”, “ENT-70” for “CVB-3”, “MRC5” for “HI-HeLa”, “0.0013 (ECHO-11)” for “0.05 (CVA-21)”, “0.0017 (ENT-70)” for “0.08 (CVB-3)”, “2×10^4” for “4×10^4”

[12] = tested on: ECHO-11; experiment: Echovirus-11 MRC5 Cell Culture Assay; format: cell-based, Echovirus strain 11; details: for EC50: Echovirus, 24 h, ECHO-11 infection of MRC5 cells, XTT, one day
Description: as §5
as §3, with “ECHO-11” for “CVA-21”, “ENT-70” for “CVB-3”, “MRC5” for “HI-HeLa”, “0.0013 (ECHO-11)” for “0.05 (CVA-21)”, “0.0017 (ENT-70)” for “0.08 (CVB-3)”, “2×10^4” for “4×10^4”

[13] = tested on: ENT-70; experiment: Enterovirus-70 MRC5 Cell Culture Assay; format: cell-based, Enterovirus strain 70; details: for EC50: Enterovirus, 24 h, ENT-70 infection of MRC5 cells, XTT, one day
Description: as §5
as §3, with “ECHO-11” for “CVA-21”, “ENT-70” for “CVB-3”, “MRC5” for “HI-HeLa”, “0.0013 (ECHO-11)” for “0.05 (CVA-21)”, “0.0017 (ENT-70)” for “0.08 (CVB-3)”, “2×10^4” for “4×10^4”

[14] = target: T2, Rhinovirus 3C protease (RVP) serotype 2 (Human rhinovirus 2, UniProt P04936); experiment: Inhibition of Rhinovirus Protease, serotype 2 (FRET assay); format: biochemical; details: enzyme start experiments, read-out: kobs/I
T2 construct: Recombinant Rhinovirus 3C proteases from serotypes 14, 16, 2 or 89 were prepared; made in house
Description: (§6) Stock solutions (50 mM, in DMSO) of various compounds were prepared; dilutions were in the same solvent. Recombinant Rhinovirus 3C proteases from serotypes 14, 16, 2 or 89 were prepared by the following standard chromatographic procedures: (1) ion exchange using Q Sepharose Fast Flow from Pharmacia; (2) affinity chromatography using Affi-Gel Blue from Biorad; and (3) sizing using Sephadex G-100 from Pharmacia. Assays contained 2% DMSO, 50 mM tris pH 7.6, 1 mM EDTA, a compound at the indicated concentrations, approximately 1 μM substrate, and 50-100 nM protease. For Ki determinations, the compound and the enzyme were preincubated for 10 minutes at 30° C. prior to addition of the substrate (substrate start). The kobs/I values were obtained from reactions initiated by addition of enzyme rather than substrate. RVP activity is measured in the fluorescence resonance energy transfer assay. The substrate was (N-terminal) DABCYL-(Gly-Arg-Ala-Val-Phe-Gln-Gly-Pro-Val-Gly)-EDANS. In the uncleaved peptide, the EDANS fluorescence was quenched by the proximal DABCYL moiety. When the peptide was cleaved, the quenching was relieved, and activity was measured as an increase in fluorescence signal.
(§7) In the above table, all data is for RVP serotype-14 unless otherwise noted in parentheses. All strains of human rhinovirus (HRV) were purchased from American Type Culture Collection (ATCC), except for serotype 14, which was produced from the infectious cDNA clone constructed and supplied to us by Dr. Roland Rueckert at the Institute for Molecular Virology, University of Wisconsin, Madison, Wis. The column designated INHIB represents the percent inhibition, with the concentration of the compound in μM indicated in parentheses, unless Ki was assigned as designated by (Ki), at 10 minute preincubation with 50 nM RVP prior to addition of substrate was used. The data in the column designated kobs/I was measured from progress curves in enzyme start experiments.

[15] = target: T3, Rhinovirus 3C protease (RVP) serotype 16 (Human rhinovirus 16, UniProt Q82122); experiment: Inhibition of Rhinovirus Protease, serotype 16 (FRET assay); format: biochemical; details: enzyme start experiments, read-out: kobs/I
T3 construct: Recombinant Rhinovirus 3C proteases from serotypes 14, 16, 2 or 89 were prepared; made in house
Description: as §6, §7

T1 sequence (P03303 1538-1719): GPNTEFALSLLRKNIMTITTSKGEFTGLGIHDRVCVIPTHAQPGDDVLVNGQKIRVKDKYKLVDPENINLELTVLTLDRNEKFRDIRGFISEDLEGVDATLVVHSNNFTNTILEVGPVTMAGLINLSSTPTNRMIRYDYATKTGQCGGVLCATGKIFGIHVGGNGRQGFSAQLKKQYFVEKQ
T3 sequence (Q82122 1511-1693): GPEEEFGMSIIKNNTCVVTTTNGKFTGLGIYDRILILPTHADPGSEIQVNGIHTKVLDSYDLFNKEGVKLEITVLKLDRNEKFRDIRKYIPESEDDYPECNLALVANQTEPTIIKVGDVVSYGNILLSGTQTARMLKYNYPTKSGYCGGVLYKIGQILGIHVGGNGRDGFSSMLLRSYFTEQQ
T2 sequence (P04936 1508-1690): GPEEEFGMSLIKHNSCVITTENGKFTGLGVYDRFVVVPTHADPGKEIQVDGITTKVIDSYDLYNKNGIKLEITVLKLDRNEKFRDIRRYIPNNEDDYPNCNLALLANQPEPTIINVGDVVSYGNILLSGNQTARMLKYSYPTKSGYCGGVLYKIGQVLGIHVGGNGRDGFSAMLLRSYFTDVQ

Row | Compound | TI [1] | EC50 [1] [µM] | kinact/KI [4] [M⁻¹ s⁻¹] | CC50 at 48 h [5] [µM] | EC50 [6] [µM] | CC50 [7] [µM] | CC50 at 24 h [8] [µM] | EC50 [9] [µM] | CC50 ([10]; human, mrc5 cells, 24 h) [µM] | CC50 at 24 h [11] [µM] | EC50 [12] [µM] | EC50 [13] [µM] | further results
1 | CCOC(=O)/C=C/[C@H](CCC(N)=O)NC(=O)[C@H](Cc1ccccc1)N(C)C(=O)[C@H](CC(C)C)NC(=O)c1cc(C)on1 [Compound 59] | > 714 | 0.14 | 108000 | > 100 | – | – | – | – | – | – | – | – | TI ([2]; CC50/EC50, HRV 1A, 2880 min): > 250; EC50 ([2]; Human rhinovirus sp., HRV 1A infected HI-HeLa cells): 0.4 µM; TI ([3]; CC50/EC50, HRV 10, 2880 min): > 250; EC50 ([3]; Human rhinovirus sp., HRV 10 infected HI-HeLa cells): 0.4 µM
2 | Cc1cc(CCCCCOc2c(Cl)cc(C3=NCCO3)cc2Cl)on1 [WIN 54954, reference compound] | > 30 | 2.13 | – | > 63 | > 100 | > 100 | > 100 | > 100 | > 100 | > 100 | > 100 | > 100 | –
3 | CCOC(=O)/C=C/[C@H](CCC(N)=O)NC(=O)[C@H](Cc1ccc(OC)cc1)N(C)C(=O)[C@H](CC(C)C)NC(=O)SCC [Compound 4] | 870 | 0.23 | 43800 | 200 | 1.8 | – | 200 | – | – | 200 | 3.2 | 0.3 | TI ([6]; CC50/EC50, CVA-21): 111; kinact/KI [14]: 541 M⁻¹ s⁻¹; Ki ([4]; RVP serotype-14, 10 minute preincubation with 50 nM RVP prior to addition of substrate, read-out: INHIB (Ki)): 2.9 µM; CC50 [10]: 200 µM; TI ([12]; CC50/EC50, ECHO-11, 1440 min): 62.5; kinact/KI [15]: 2010 M⁻¹ s⁻¹; TI ([13]; CC50/EC50, ENT-70, 1440 min): 667
4 | CCOC(=O)c1ccc(OCCC2CCN(c3ccc(C)nn3)CC2)cc1 [Pirodavir, reference compound] | > 300 | 0.03 | – | > 10 | > 100 | > 100 | > 100 | > 100 | > 100 | > 100 | > 100 | > 100 | –

— patent publication US5962487A, “Antipicornaviral compounds and methods for their use and preparation” (Agouron Pharmaceuticals, Inc., priority 1997, dated 1999)
